Common to all, as to assay type: in vivo
For experiment [1], the system named is tobacco Mosaic virus (TMV). Kind of experiment: Anti-TMV activity: living passivation activity test. The following applies: for inhibition at 500 µg/mL: Tobacco mosaic virus, read-out: Relative inhibition rate (%) Living passivation activity test. How it is done: (§1) Determination of anti-tobacco Mosaic virus (TMV) activity by the following procedure:
(§2) The virus crude extract was centrifuged with polyethylene glycol at twice and refrigerated at 4°C for use. The absorbance of 260nm wavelength was determined by ultraviolet spectrophotometer, and the virus concentration was calculated according to the formula. Virus concentration(mg/ml) = (A260 × dilution ratio)(/E)^0.10 1cm^260nm . [formula]
(§3) After weighing, cryptolepine salt derivative, ningnanmycin and the original drug of ribavirin were dissolved in DMF to obtain 1×10^5µg/mL mother solution, and then diluted to the required concentration with 1‰ Tween 80 aqueous solution.
Select the 3-5 leaf stage of tobacco Xanthi nc with uniform growth, mix the test sample agent with the same volume of virus juice to passivate for 30min, friction inoculation, virus concentration 20µg/mL, the leaf was washed with running water after inoculation, repeat 3 times, set 1‰ Tween 80 aqueous solution as control. 3 days later, the number of disease spots was calculated. [formula]
Anti-tobacco Mosaic virus passivation activity test of all compounds was at a treatment dose of 500µg/mL. The positive control was the commercial anti-plant virus agent viriazole.

Experiment [2] has as its system tobacco Mosaic virus (TMV). Description: Anti-TMV activity: live protection function. Particulars: for antiTMV activity / TMV activity: 500µg/mL, Table 4 (all three modes); for antiTMV activity: compared with commercial Ningnanmycin; for TMV activity: compared with ribavirin; for inhibition at 500 µg/mL: Tobacco mosaic virus, read-out: Relative inhibition rate (%) Live protection function. How it is done:
as §1, §2, §3
Select the 3-5 leaf stage of tobacco Xanthi nc with uniform growth, spray the whole plant, repeat each treatment 3 times, and set 1‰ Tween80 aqueous solution as control. 24h later, the leaf surface was coated with emery (500 mesh), the disease venom was dipped with a brush, and the whole leaf surface was gently rubbed twice along the direction of the branch pulse by using the brush, the leaf was supported by palm of hand, the virus concentration was 10µg/mL, and the leaf was washed by water after inoculation. After 3 days, the number of disease spots was recorded and the prevnetion and control effect was calculated.

In experiment [3] the test system is rice sheath blight strains. Description: Bactericidal activity test: resistance to rice sheath blight (live pot test). The following applies: for pest or weed control at 400 µg/mL: Oryza sativa, 144 h. How it is done: Bactericidal activity test, the determination procedure is as follows: Test of resistance to rice sheath blight: Select uniformly growing rice seedlings and spray them on the leaves at the set concentration, set a water sprayring group as blank control, every treatment was repeated twice. After 24h, the rice seedlings were inoculated with rice sheath blight strains and placed at room temperature (25±4°C) for normal management after inoculation. The prevention and control effect was investigated by visual inspection 6 days after inoculation.

Experiment [4] concerns tobacco Mosaic virus (TMV). Kind of experiment: Anti-TMV activity: live treatment effect. Particulars: for inhibition at 500 µg/mL: Tobacco mosaic virus, 72 h, read-out: Relative inhibition rate (%) Live treatment effect. How it is done: as §1, §2, §3
Select the 3-5 leaf stage of tobacco Xanthi nc with uniform growth, use a brush to vaccinate the virus in the whole leaf, the virus concentration is 10µg/mL, and the leaf was washed with running water after inoculation. After the leaves were dried, the whole plant was sprayed with test sample, repeated 3 times every treatment, and 1‰ Tween 80 aqueous solution was set as control. After 3 days, the number of disease spots was recorded and the prevnetion and control effect was calculated.

Setting [5] is: 400mg/L leaf spray on rice seedlings, inoculated after 24h, visual inspection 6 days after inoculation, read-out: Resistance to rice sheath blight (%)/400mg/L.
The mark [6] stands for this setting: read-out: Resistance to rice sheath blight (%)/400mg/L.

The structures appear in SMILES notation. Where two headings read alike, the source gives them in different places.

By inhibition is commonly meant the change of the read-out against control, counted positive when it falls. For `CCCCC(CC)CNc1c2ccccc2[n+](C)c2c1[nH]c1ccccc12` (stereo not drawn) [Example 27], the inhibition at 500 µg/mL came to 47.9 ± 1.5% in experiment [1], 52.1 ± 2.8% in experiment [2] and 46.3 ± 4.2% in experiment [4]. Also, the antiTMV activity result in experiment [2] is listed as “comparable to that of commercial Ningnanmycin”. Also, the TMV activity result in experiment [2] was “better TMV activity than the ribavirin”. Further, the pest or weed control at 400 µg/mL in experiment [3] (setting [5]) stood at 30%.

Take `C[n+]1c2ccccc2c(NCC(C)(C)N)c2[nH]c3ccccc3c21` [Example 36]: the inhibition at 500 µg/mL in experiment [1] stood at 28.7 ± 1.1%; in experiment [2], 29.8 ± 2.1%; in experiment [4], 30.1 ± 0.2%. In addition, the pest or weed control at 400 µg/mL in experiment [3] (setting [5]) was 35 ± 5%.

Regarding `C[n+]1c2ccccc2c(NCCCN2CCCCC2)c2[nH]c3ccccc3c21` [Example 47], the inhibition at 500 µg/mL amounted to 35.7 ± 0.3% in experiment [1], 36.4 ± 2.8% in experiment [2] and 33.3 ± 2% in experiment [4]. The pest or weed control at 400 µg/mL in experiment [3] (setting [5]) was 45 ± 5%; in experiment [3] (live pot test, summary of Table 5 (400mg/L), read-out: bactericidal activity against rice sheath blight), more than 50%.

In the case of `CN1CCCC(CNc2c3ccccc3[n+](C)c3c2[nH]c2ccccc23)C1` (stereo not drawn) [Example 46], the inhibition at 500 µg/mL is 46.3 ± 3.5% in experiment [1], 44.7 ± 4% in experiment [2] and 40.1 ± 0.9% in experiment [4]. The TMV activity result in experiment [2] is recorded as “better TMV activity than the ribavirin”. For the same molecule, the pest or weed control at 400 µg/mL in experiment [3] (setting [5]) was 30%.

As for `COC(=O)c1ccc2c(c1)cc1c(c3ccccc3n1S(=O)(=O)c1ccc(C)cc1)[n+]2C` [Example 15], the figures for the inhibition at 500 µg/mL in experiment [1], in experiment [2] and in experiment [4] were 20 ± 1%, 15.6 ± 0.4% and 22.1 ± 0.2%, respectively. In experiment [3] (setting [6]), the pest or weed control at 400 µg/mL came to 40%.

`C[n+]1c2ccccc2c(NCCCN)c2[nH]c3ccccc3c21.[I-]` [Example 33]: the “Relative inhibition rate (%) Living passivation activity test” value in experiment [1] (Treatment dose 500 mg/L, sample mixed with virus juice for 30min, then inoculated on tobacco Xanthi nc, virus 20µg/mL, 3 days) is on record as 49.8±3.1%. Besides, in experiment [2], the antiTMV activity entry is on record as “comparable to that of commercial Ningnanmycin” and the TMV activity entry was “better TMV activity than the ribavirin”. For the same molecule, in experiment [2] (Treatment dose 500 mg/L, tobacco Xanthi nc sprayed 24h before inoculation, virus 10µg/mL, disease spots counted after 3 days), the “Relative inhibition rate (%) Live protection function” value is reported as 57.9±4.6%. Further, in experiment [3] (400mg/L leaf spray on rice seedlings, inoculated after 24h, visual inspection 6 days after inoculation), the “Resistance to rice sheath blight (%)/400mg/L” value worked out at 40±0%. Also, in experiment [4] (Treatment dose 500 mg/L, tobacco Xanthi nc inoculated (virus 10µg/mL), then sprayed, disease spots counted after 3 days), the “Relative inhibition rate (%) Live treatment effect” value was 51.7±3.6%.

In the case of `Cc1ccc(S(=O)(=O)n2c3ccccc3c3c2cc2cc(F)ccc2[n+]3C)cc1` [Example 11], the inhibition at 500 µg/mL in experiment [1] stood at 22.3 ± 1%; in experiment [2], 27.6 ± 1.4%; in experiment [4], 30.1 ± 1.1%. Besides, the pest or weed control at 400 µg/mL in experiment [3] (setting [6]) came out at 40%.

Consider `C[n+]1c2ccccc2cc2c1c1ccccc1n2S(=O)(=O)c1ccccc1` [Example 22], for which the figures for the inhibition at 500 µg/mL in experiment [1], in experiment [2] and in experiment [4] were 15.5 ± 1.1%, 14 ± 1.1% and 18.2 ± 1.1%, respectively. For the same molecule, the pest or weed control at 400 µg/mL in experiment [3] (setting [6]) was 45 ± 5%; in experiment [3] (read-out: bactericidal activity against rice sheath blight), more than 50%.

The values above are taken from patent EP4578857A1, “CRYPTOLEPINE SALT DERIVATIVE, AND PREPARATION METHOD THEREFOR AND USE THEREOF” (Nankai University, priority 2023, dated 2025).
